Data from PubChem BioAssay (NCI).
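A five-concentration, 48-hour dose response in 96-well plates underlies each endpoint, interpolated linearly between surrounding concentrations. At the GI50, growth is halved. TGI denotes the concentration required for complete inhibition of growth.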

Assays:
Assay in all cases: growth of human tumour cells (NCI), 48 h
PC-3 prostate = tested on: PC-3 prostate
HCT-15 colon = tested on: HCT-15 colon
OVCAR-5 ovarian = tested on: OVCAR-5 ovarian
MDA-MB-231 breast = tested on: MDA-MB-231 breast
SF-539 CNS = tested on: SF-539 CNS
HS 578T breast = tested on: HS 578T breast
SNB-19 CNS = tested on: SNB-19 CNS
RPMI-8226 leukemia = tested on: RPMI-8226 leukemia
SNB-75 CNS = tested on: SNB-75 CNS
A549 NSCLC = tested on: A549 NSCLC
T-47D breast = tested on: T-47D breast
SF-295 CNS = tested on: SF-295 CNS
UACC-62 melanoma = tested on: UACC-62 melanoma
KM12 colon = tested on: KM12 colon
K-562 leukemia = tested on: K-562 leukemia
DU-145 prostate = tested on: DU-145 prostate
786-0 renal = tested on: 786-0 renal
LOX IMVI melanoma = tested on: LOX IMVI melanoma
A498 renal = tested on: A498 renal
M14 melanoma = tested on: M14 melanoma
CAKI-1 renal = tested on: CAKI-1 renal
ACHN renal = tested on: ACHN renal
OVCAR-4 ovarian = tested on: OVCAR-4 ovarian
IGROV1 ovarian = tested on: IGROV1 ovarian
SK-MEL-28 melanoma = tested on: SK-MEL-28 melanoma
HOP-62 NSCLC = tested on: HOP-62 NSCLC
CCRF-CEM leukemia = tested on: CCRF-CEM leukemia
HCT-116 colon = tested on: HCT-116 colon
MDA-MB-435 = tested on: MDA-MB-435
NCI/ADR-RES ovarian = tested on: NCI/ADR-RES ovarian
UO-31 renal = tested on: UO-31 renal
OVCAR-8 ovarian = tested on: OVCAR-8 ovarian
MALME-3M melanoma = tested on: MALME-3M melanoma
SW-620 colon = tested on: SW-620 colon
UACC-257 melanoma = tested on: UACC-257 melanoma
HOP-92 NSCLC = tested on: HOP-92 NSCLC
RXF 393 renal = tested on: RXF 393 renal
MDA-N = tested on: MDA-N
SR leukemia = tested on: SR leukemia
MOLT-4 leukemia = tested on: MOLT-4 leukemia
MCF7 breast = tested on: MCF7 breast
BT-549 breast = tested on: BT-549 breast
EKVX NSCLC = tested on: EKVX NSCLC
NCI-H522 lung = tested on: NCI-H522 lung
NCI-H226 lung = tested on: NCI-H226 lung
SF-268 CNS = tested on: SF-268 CNS
SN12C renal = tested on: SN12C renal
OVCAR-3 ovarian = tested on: OVCAR-3 ovarian
HT29 colon = tested on: HT29 colon
TK-10 renal = tested on: TK-10 renal
U251 CNS = tested on: U251 CNS
COLO 205 colon = tested on: COLO 205 colon
SK-MEL-2 melanoma = tested on: SK-MEL-2 melanoma
SK-OV-3 ovarian = tested on: SK-OV-3 ovarian
HCC-2998 colon = tested on: HCC-2998 colon
SK-MEL-5 melanoma = tested on: SK-MEL-5 melanoma
NCI-H23 lung = tested on: NCI-H23 lung
HL-60(TB) leukemia = tested on: HL-60(TB) leukemia
NCI-H460 lung = tested on: NCI-H460 lung

## COc1ccc2nc3cccc([N+](=O)[O-])c3c(NCCNCCO)c2c1
PC-3 prostate
  TGI: 130 nM
HCT-15 colon
  GI50: 206 nM
OVCAR-5 ovarian
  GI50: 32.7 nM
  TGI: 185 nM
MDA-MB-231 breast
  GI50: 411 nM
  TGI: 8250 nM
SF-539 CNS
  GI50: 43.3 nM
  TGI: 186 nM
HS 578T breast
  GI50: 50.1 nM
  TGI: 361 nM
SNB-19 CNS
  GI50: 130 nM
  TGI: 636 nM
RPMI-8226 leukemia
  GI50: 19.8 nM
  TGI: 111 nM
SNB-75 CNS
  GI50: 36.7 nM
  TGI: 151 nM
A549 NSCLC
  GI50: 27.4 nM
  TGI: 119 nM
T-47D breast
  GI50: 81.3 nM
  TGI: 619 nM
SF-295 CNS
  GI50: 23.8 nM
  TGI: 188 nM
UACC-62 melanoma
  GI50: 16.2 nM
  TGI: 39.7 nM
KM12 colon
  GI50: 60 nM
  TGI: 250 nM
K-562 leukemia
  GI50: 15.3 nM
  TGI: 121 nM
DU-145 prostate
  GI50: 10.4 nM
  TGI: 746 nM
786-0 renal
  GI50: 21.2 nM
  TGI: 102 nM
LOX IMVI melanoma
  GI50: 18.4 nM
  TGI: 72.1 nM
A498 renal
  GI50: 26.2 nM
  TGI: 70.9 nM
M14 melanoma
  GI50: 19.8 nM
  TGI: 53.4 nM
CAKI-1 renal
  GI50: 39.6 nM
  TGI: 502 nM
ACHN renal
  GI50: 15.9 nM
  TGI: 70.1 nM
OVCAR-4 ovarian
  GI50: 19.9 nM
  TGI: 51.5 nM
IGROV1 ovarian
  GI50: 17.3 nM
  TGI: 71.7 nM
SK-MEL-28 melanoma
  GI50: 102 nM
  TGI: 352 nM
HOP-62 NSCLC
  GI50: 35.2 nM
  TGI: 169 nM
CCRF-CEM leukemia
  GI50: 24 nM
  TGI: 173 nM
HCT-116 colon
  GI50: 19.6 nM
  TGI: 753 nM
MDA-MB-435
  GI50: 25.6 nM
  TGI: 90.3 nM
NCI/ADR-RES ovarian
  GI50: 660 nM
  TGI: 6700 nM
UO-31 renal
  GI50: 106 nM
  TGI: 336 nM
OVCAR-8 ovarian
  GI50: 13 nM
  TGI: 151 nM
MALME-3M melanoma
  GI50: 25 nM
  TGI: 124 nM
SW-620 colon
  GI50: 19.8 nM
  TGI: 610 nM
UACC-257 melanoma
  GI50: 51.8 nM
  TGI: 189 nM
HOP-92 NSCLC
  GI50: 23 nM
  TGI: 64.9 nM
RXF 393 renal
  GI50: 18.7 nM
  TGI: 47.4 nM
MDA-N
  GI50: 37 nM
  TGI: 156 nM
SR leukemia
  GI50: 16.7 nM
  TGI: 3280 nM
MOLT-4 leukemia
  GI50: 20.7 nM
  TGI: 229 nM
MCF7 breast
  GI50: 10.2 nM
  TGI: 100 nM
BT-549 breast
  GI50: 51 nM
  TGI: 173 nM
EKVX NSCLC
  GI50: 104 nM
  TGI: 426 nM
NCI-H522 lung
  TGI: 14.6 nM
NCI-H226 lung
  GI50: 52.2 nM
  TGI: 340 nM
SF-268 CNS
  GI50: 18.4 nM
  TGI: 92.5 nM
SN12C renal
  GI50: 46.8 nM
  TGI: 306 nM
OVCAR-3 ovarian
  GI50: 26.5 nM
  TGI: 66.7 nM
HT29 colon
  GI50: 12 nM
  TGI: 99.1 nM
TK-10 renal
  GI50: 29.1 nM
  TGI: 272 nM
U251 CNS
  GI50: 22.6 nM
  TGI: 155 nM
COLO 205 colon
  GI50: 13.7 nM
  TGI: 54.5 nM
SK-MEL-2 melanoma
  GI50: 16.7 nM
  TGI: 34.4 nM
SK-OV-3 ovarian
  GI50: 45.9 nM
  TGI: 388 nM
HCC-2998 colon
  GI50: 41.7 nM
  TGI: 206 nM
SK-MEL-5 melanoma
  GI50: 11.3 nM
  TGI: 25.8 nM
NCI-H23 lung
  GI50: 104 nM
  TGI: 2700 nM
HL-60(TB) leukemia
  GI50: 21.2 nM
  TGI: 4140 nM
NCI-H460 lung
  GI50: 11.4 nM
  TGI: 102 nM
